System: HBV DNA in HepG2.2.15 cells
Test: HBV in vitro dot-blot hybridization test
Assay type: cell-based, Hepatitis B virus
Details: Hepatitis B virus, HepG2.2.15, dot-blot hybridization assay, read-out: Concentration for 50% inhibition of HBV (EC50)value
Protocol: • 1. Purpose of the test: • The content of HBV DNA in HepG2.2.15 cells was detected by dot-blot hybridization test to evaluate an inhibitory action of the compound on HBV with an EC50 value as an indicator. • 2. Experimental materials: • 2.1 Cell lines: HepG2.2.15 Cells • HepG2.2.15 cell culture media (DMEM/F12, Invitrogen-11330057; 10% serum Invitrogen-10099141; 100 units/mL Penicillin and 10 μg/mL Streptomycin, Invitrogen-15140122; 1% non-essential amino acid, Invitrogen-11140076; 2 mM L-GLUTAMINE, Invitrogen-25030081; 300 µg/ml Geneticin, Invitrogen-10131027 • 2.2 Reagents: • Trypsin (I Invitrogen-25300062) • DPBS (Hyclone-SH30028.01B) • DMSO (Sigma-D2650-100ML) • 96-well cell-culture plate (Corning-3599) • CO2 incubator (HERA-CELL-240) • 20×SSC (Bio-serve Co. Ltd) • Tris-HCl (Aldirch-154563-1KG) • NaOH (Sinopharm 10019718) • NaCl (Sinopharm 10019308) • Hybridization solution (Major BioTech Co. Ltd, IMMUNE GOLD-HYB-500) • DIG Wash and Block Buffer set (Roche-11585762001) • Anti-digoxigenin-AP, Fab fragments from sheep (Roche-11093274910) • 2.3 Materials and Instruments: • Positively-Charged Nylon Membrane (GE-RPN2250B) • Transfer Membrane Instrument (Bio-Rad, 170-6545) • Hybridization Oven (HL-2000 Hybrilinker) • 3. Testing steps and Methods: • 3.1 HepG2.2.15 cells (4×10^4 cells/well) were planted into a 96-well plate, and at 37° C., 5% CO2 cultured overnight. • 3.2 On Day 2, the compounds were diluted in totally 6 concentrations with a dilution gradient of five times. The compounds at different concentrations were added into the culture wells in duplicate. The final concentration of DMSO in the culture media was 1%. 1 μM GLS4 was used as 100% inhibition control; 1% DMSO as 0% inhibition control. • 3.3 On Day 5, replacing with the fresh culture media containing the compound was performed. • 3.4 On Day 8 and Day 9, the culture media in the culture wells was removed, and the cells were harvested for dot-blot hybridization. • The lysate was added into a culture well, and at 37° C. incubating for half an hour to disintegrate cells; the supernatant was obtained by centrifugation and transferred into a new microplate; a denaturation solution was added, after sufficient mixing the denatured sample was transferred and imprinted onto a Nylon membrane, the nucleic acid was fixed onto the membrane by UV cross-linking. • Pre-hybridization: the membrane was incubated at 60° C. in a hybridization solution for 1 hour. • Hybridization: heating the denatured digoxin-labelled HBV DNA probe and incubating at 60° C. overnight. • Membrane Washing: performing high strigency washing twice, low strigency washing for 3 times. • Blocking: incubating the membrane at room temperature in a blocking solution for 30-60 minutes. • Hybridization: diluting the Antibody Solution with the blocking solution, in which the membrane was placed and incubated at room temperature for 30-60 minutes. • Developing: washing the membrane in a Detection Buffer for 5 minutes, followed by adding a developing solution, pressing and exposing. • The photos was saved in tiff format, and a gray value of the dot was quantified with quantity one software. • 3.5 Data Analysis: • 3.5.1 The inhibition percentage was calculated: % Inh.=[1−(sample dot gray value−1 μM GLS4 dot gray value 1)/(DMSO control dot gray value−1 μM GLS4 dot gray value 1)]×100. • 3.5.2 Calculating EC50: the concentration of the compound for 50% inhibition of HBV (EC50) was calculated by using GraphPad Prism Software. • 4.

Compound	EC50
CCOC(=O)C1=C2C[C@H](c3nnn[nH]3)CN2C(c2nccs2)=N[C@H]1c1ccc(F)cc1Cl [Example 32]	1 to 5 µM
CCOC(=O)C1=C2C[C@@H](c3nnn[nH]3)CN2C(c2nccs2)=N[C@H]1c1ccc(F)cc1Br [Example 33]	1 to 5 µM
CCOC(=O)C1=C2C[C@H](O)CN2C(c2nccs2)=N[C@H]1c1ccc(F)cc1Cl [Example 34]	0.1 to 0.5 µM
CCOC(=O)C1=C2C[C@H](O)CN2C(c2nccs2)=N[C@@H]1c1ccc(F)cc1Cl [Example 35]	1 to 5 µM
CCOC(=O)C1=C2C[C@H](N(C)C)CN2C(c2nccs2)=N[C@H]1c1ccc(F)cc1Br [Example 36]	0.5 to 1 µM
CCOC(=O)C1=C2C[C@@H](N(C)C)CN2C(c2nccs2)=N[C@H]1c1ccc(F)cc1Br [Example 37]	1 to 5 µM
CCOC(=O)C1=C2C[C@H](NC(=O)OC(C)(C)C)CN2C(c2nccs2)=N[C@H]1c1ccc(F)cc1Br [Example 38]	< 0.1 µM
CCOC(=O)C1=C2C[C@@H](NC(=O)OC(C)(C)C)CN2C(c2nccs2)=N[C@H]1c1ccc(F)cc1Br [Example 39]	< 0.1 µM
CCOC(=O)C1=C2C[C@@H](N)CN2C(c2nccs2)=N[C@H]1c1ccc(F)cc1Br [Example 40]	1 to 5 µM
CCOC(=O)C1=C2C[C@H](N)CN2C(c2nccs2)=N[C@H]1c1ccc(F)cc1Br [Example 41]	1 to 5 µM
CCOC(=O)C1=C2C[C@@H](NC(=O)OC)CN2C(c2nccs2)=N[C@H]1c1ccc(F)cc1Br [Example 43]	0.1 to 0.5 µM
CCOC(=O)C1=C2C[C@H](NC(=O)OC)CN2C(c2nccs2)=N[C@H]1c1ccc(F)cc1Br [Example 44]	< 0.1 µM
CCOC(=O)C1=C2CC(NC(=O)OC(C)C)CN2C(c2nccs2)=N[C@H]1c1ccc(F)cc1Br (stereo partly shown) [Example 46]	0.1 to 0.5 µM
CCOC(=O)C1=C2C[C@H](NC(=O)OC(C)C)CN2C(c2nccs2)=N[C@H]1c1ccc(F)cc1Br [Example 47]	< 0.1 µM
CCOC(=O)C1=C2C[C@@H](NC(C)=O)CN2C(c2nccs2)=N[C@H]1c1ccc(F)cc1Br [Example 49]	0.1 to 0.5 µM
CCOC(=O)C1=C2C[C@H](NC(C)=O)CN2C(c2nccs2)=N[C@H]1c1ccc(F)cc1Br [Example 50]	1 to 5 µM
CCOC(=O)C1=C2CC(NC(=O)NC)CN2C(c2nccs2)=N[C@H]1c1ccc(F)cc1Br (stereo partly shown) [Example 52]	0.5 to 1 µM
CCOC(=O)C1=C2C[C@H](NC(=O)NC)CN2C(c2nccs2)=N[C@H]1c1ccc(F)cc1Br [Example 53]	< 0.1 µM
CCOC(=O)C1=C2C[C@@H](NS(=O)(=O)NC)CN2C(c2nccs2)=N[C@H]1c1ccc(F)cc1Br [Example 55]	< 0.1 µM
CCOC(=O)C1=C2C[C@H](N(C)S(=O)(=O)NC)CN2C(c2nccs2)=N[C@H]1c1ccc(F)cc1Br [Example 56]	< 0.1 µM
CCOC(=O)C1=C2CC(NS(C)(=O)=O)CN2C(c2nccs2)=N[C@H]1c1ccc(F)cc1Br (stereo partly shown) [Example 58]	< 0.1 µM
CCOC(=O)C1=C2C[C@H](NS(C)(=O)=O)CN2C(c2nccs2)=N[C@H]1c1ccc(F)cc1Br [Example 59]	< 0.1 µM
CCOC(=O)C1=C2CC(NS(=O)(=O)C3CC3)CN2C(c2nccs2)=N[C@H]1c1ccc(F)cc1Br (stereo partly shown) [Example 61]	< 0.1 µM

Same assay, conditions: Hepatitis B virus, HepG2.2.15, summary list of target compounds, Examples 1-165 (same as Table 2), read-out: BIOACTIVITY (inhibitory actions on HBV DNA, EC50)

Compound	EC50
CCOC(=O)C1=C2C[C@H](c3nnn[nH]3)CN2C(c2nccs2)=N[C@H]1c1ccc(F)cc1Cl [Example 32]	1 to 5 µM
CCOC(=O)C1=C2C[C@@H](c3nnn[nH]3)CN2C(c2nccs2)=N[C@H]1c1ccc(F)cc1Br [Example 33]	1 to 5 µM
CCOC(=O)C1=C2C[C@H](O)CN2C(c2nccs2)=N[C@H]1c1ccc(F)cc1Cl [Example 34]	0.1 to 0.5 µM
CCOC(=O)C1=C2C[C@H](O)CN2C(c2nccs2)=N[C@@H]1c1ccc(F)cc1Cl [Example 35]	1 to 5 µM
CCOC(=O)C1=C2C[C@H](N(C)C)CN2C(c2nccs2)=N[C@H]1c1ccc(F)cc1Br [Example 36]	0.5 to 1 µM
CCOC(=O)C1=C2C[C@@H](N(C)C)CN2C(c2nccs2)=N[C@H]1c1ccc(F)cc1Br [Example 37]	1 to 5 µM
CCOC(=O)C1=C2C[C@H](NC(=O)OC(C)(C)C)CN2C(c2nccs2)=N[C@H]1c1ccc(F)cc1Br [Example 38]	< 0.1 µM
CCOC(=O)C1=C2C[C@@H](NC(=O)OC(C)(C)C)CN2C(c2nccs2)=N[C@H]1c1ccc(F)cc1Br [Example 39]	< 0.1 µM
CCOC(=O)C1=C2C[C@@H](N)CN2C(c2nccs2)=N[C@H]1c1ccc(F)cc1Br [Example 40]	1 to 5 µM
CCOC(=O)C1=C2C[C@H](N)CN2C(c2nccs2)=N[C@H]1c1ccc(F)cc1Br [Example 41]	1 to 5 µM
CCOC(=O)C1=C2C[C@@H](NC(=O)OC)CN2C(c2nccs2)=N[C@H]1c1ccc(F)cc1Br [Example 43]	0.1 to 0.5 µM
CCOC(=O)C1=C2C[C@H](NC(=O)OC)CN2C(c2nccs2)=N[C@H]1c1ccc(F)cc1Br [Example 44]	< 0.1 µM
CCOC(=O)C1=C2CC(NC(=O)OC(C)C)CN2C(c2nccs2)=N[C@H]1c1ccc(F)cc1Br (stereo partly shown) [Example 46]	0.1 to 0.5 µM
CCOC(=O)C1=C2C[C@H](NC(=O)OC(C)C)CN2C(c2nccs2)=N[C@H]1c1ccc(F)cc1Br [Example 47]	< 0.1 µM
CCOC(=O)C1=C2C[C@@H](NC(C)=O)CN2C(c2nccs2)=N[C@H]1c1ccc(F)cc1Br [Example 49]	0.1 to 0.5 µM
CCOC(=O)C1=C2C[C@H](NC(C)=O)CN2C(c2nccs2)=N[C@H]1c1ccc(F)cc1Br [Example 50]	1 to 5 µM
CCOC(=O)C1=C2CC(NC(=O)NC)CN2C(c2nccs2)=N[C@H]1c1ccc(F)cc1Br (stereo partly shown) [Example 52]	0.5 to 1 µM
CCOC(=O)C1=C2C[C@H](NC(=O)NC)CN2C(c2nccs2)=N[C@H]1c1ccc(F)cc1Br [Example 53]	< 0.1 µM
CCOC(=O)C1=C2C[C@@H](NS(=O)(=O)NC)CN2C(c2nccs2)=N[C@H]1c1ccc(F)cc1Br [Example 55]	< 0.1 µM
CCOC(=O)C1=C2C[C@H](N(C)S(=O)(=O)NC)CN2C(c2nccs2)=N[C@H]1c1ccc(F)cc1Br [Example 56]	< 0.1 µM
CCOC(=O)C1=C2CC(NS(C)(=O)=O)CN2C(c2nccs2)=N[C@H]1c1ccc(F)cc1Br (stereo partly shown) [Example 58]	< 0.1 µM
CCOC(=O)C1=C2C[C@H](NS(C)(=O)=O)CN2C(c2nccs2)=N[C@H]1c1ccc(F)cc1Br [Example 59]	< 0.1 µM
CCOC(=O)C1=C2CC(NS(=O)(=O)C3CC3)CN2C(c2nccs2)=N[C@H]1c1ccc(F)cc1Br (stereo partly shown) [Example 61]	< 0.1 µM

Source: patent publication US9938301B2, “Dihydropyrimido fused ring derivative as HBV inhibitor” (QILU PHARMACEUTICAL CO., LTD., priority 2014, dated 2018)
